Experimental data published in US6583150B1, “Pharmaceutical composition based on polyaromatic compounds” (Laboratorie L. Lafon, priority 1999, dated 2003).

Tests used:
[1] = tested on: T-47D; experiment: MTT cytotoxicity test, T-47D; format: cell-based; details: Homo sapiens, T47D, T-47D breast cancer, 72 hours, read-out: concentrations flanking the IC50
Procedure: (§1) The influence of the compounds of formulae I and II on neoplastic cells was evaluated using the MTT calorimetric test. The principle of the MTT test is based on the mitochondrial reduction by metabolically active live cells of the yellow-colored product MTT (3-(4,5-dimethylthiazol-2-yl)-2,5-diphenyltetrazolium bromide) to a blue-colored product, formazan. The amount of formazan thus obtained is directly proportional to the amount of live cells present in the culture well(s). This amount of formazan is measured by spectrophotometry.
(§2) The cell lines are maintained in monolayer culture at 37° C. in stoppered culture dishes containing 25 MM HEPES MEM (Minimum Essential Medium) base medium. This medium, which is suitable for growing a range of varied diploid or primary mammalian cells, is then supplemented: […]
(§3) with a an amount of 5% FCS (Fetal Calf Serum) decomplemented at 56° C. for 1 hour, with 0.6 mg/mL of L-glutamine, with 200 IU/mL of penicillin, with […] of streptomycin, with 0.1 mg/mL of gentamicin.
(§4) The 12 human cancer cell lines used were obtained from the American Type Culture Collection (ATCC, Rockville, Md., USA). These 12 cell lines are: […]

[2] = tested on: T24; experiment: MTT cytotoxicity test, T24; format: cell-based; details: Homo sapiens, T-24, T24 bladder cancer, 72 hours, read-out: concentrations flanking the IC50
Procedure: as §1, §2, §3, §4

In the case of `O=C1c2ncccc2-c2nc3ccccc3c3ccnc1c23` [CRL 8299, Benzo[b]pyrido[4,3,2-de][1,7]phenanthroline-8-one], the IC50 [1] is reported as 10 nM and the IC50 [2] is reported as less than 0.1 nM.
